The source of these data is ChEMBL document CHEMBL1146366, “Synthesis and antigenotoxic activity of some naphtho[2,1-b]pyrano[3,2-e][1,2,4]triazolo[1,5-c]pyrimidine derivatives” (Eur J Med Chem, 2007).

Data set [1] has as its system Escherichia coli. Description: Genotoxicity in Escherichia coli PQ37 assessed as ratio of beta-galactosidase/AP activity in presence and absence of drug at 10 ug. It counts as toxicity, organism-based.
The test system of data set [2] is Escherichia coli. Description: Inhibition of nifuroxazide-induced genotoxicity in Escherichia coli PQ37 at 2 ug by SOS chromotest. The data set is classed as functional.
In data set [3] the test system is Escherichia coli. Briefly: Inhibition of nifuroxazide-induced genotoxicity in Escherichia coli PQ37 at 10 ug by SOS chromotest. It counts as functional.
Data set [4] has as its system Escherichia coli. Briefly: Inhibition of nifuroxazide-induced genotoxicity in Escherichia coli PQ37 at 50 ug by SOS chromotest. It counts as functional.
Data set [5] has as its system Escherichia coli. Description: Genotoxicity in Escherichia coli PQ37 assessed as ratio of beta-galactosidase/AP activity in presence and absence of drug at 50 ug. The data set is classed as toxicity, organism-based.
In data set [6] the test system is Escherichia coli. Briefly: Genotoxicity in Escherichia coli PQ37 assessed as ratio of beta-galactosidase/AP activity in presence and absence of drug at 2 ug. The data set is classed as toxicity, organism-based.
Data set [7] deals with Escherichia coli. Description: Genotoxicity in Escherichia coli PQ37 assessed as ratio of beta-galactosidase/AP activity in presence and absence of drug at 5 ug. The data set is classed as toxicity, organism-based.

By Inhibition is commonly meant the percentage by which the read-out fell short of the control. Low readings indicate a weak effect, high ones a strong effect. For the molecule `Cc1nc2c3c(ncn2n1)Oc1ccc2ccccc2c1C3C(C)C` (stereo not drawn), the Ratio in the data set on Escherichia coli [1] amounted to 1.1; in the data set on Escherichia coli [5], 1.39; in the data set on Escherichia coli [6], 1.01. For the same molecule, the values for the Inhibition in the data set with Escherichia coli [2], with Escherichia coli [3] and with Escherichia coli [4] were 99%, 98% and 95%, respectively.
For `c1ccc(-c2nc3c4c(ncn3n2)Oc2ccc3ccccc3c2C4c2ccccc2)cc1` (stereo not drawn), the Ratio in the data set with Escherichia coli [1] came out at 1.24; in the data set on Escherichia coli [5], 1.4; in the data set with Escherichia coli [6], 1.02. Also, the values for the Inhibition in the data set on Escherichia coli [2], in the data set on Escherichia coli [3] and in the data set on Escherichia coli [4] were 78%, 86% and 99%, respectively.
For the molecule `Clc1ccccc1C1c2c(ccc3ccccc23)Oc2ncn3nc(-c4ccccc4)nc3c21` (stereo not drawn), the Ratio with Escherichia coli [1] worked out at 1.21; with Escherichia coli [5], 1.62; in the data set on Escherichia coli [6], 1.16. Also, the Inhibition came out at 64% in the data set on Escherichia coli [2], 60% with Escherichia coli [3] and 48% with Escherichia coli [4].
As for `Clc1ccc(C2c3c(ccc4ccccc34)Oc3ncn4nc(-c5ccccc5)nc4c32)cc1` (stereo not drawn), the Ratio in the data set with Escherichia coli [1] is on record as 1.33; in the data set with Escherichia coli [5] it was 1.67; in the data set on Escherichia coli [6], 1.44. For the same molecule, the Inhibition with Escherichia coli [2] amounted to 32%; in the data set on Escherichia coli [3], 38%; in the data set on Escherichia coli [4] it was 48%.
As to `CC(C)C1c2c(ccc3ccccc23)Oc2ncn3nc(-c4ccccc4)nc3c21` (stereo not drawn), the Ratio is 1.19 in the data set on Escherichia coli [1], 1.25 in the data set on Escherichia coli [5] and 1.11 with Escherichia coli [6]. Besides, the values for the Inhibition with Escherichia coli [2], in the data set on Escherichia coli [3] and in the data set on Escherichia coli [4] were 62%, 61% and 63%, respectively.
For the molecule `Cc1nc2c3c(ncn2n1)Oc1ccc2ccccc2c1C3c1ccccc1` (stereo not drawn), the figures for the Ratio in the data set on Escherichia coli [1], with Escherichia coli [5] and in the data set on Escherichia coli [6] were 1.32, 1.56 and 1.12, respectively. Besides, the results for the Inhibition in the data set with Escherichia coli [2], with Escherichia coli [3] and in the data set with Escherichia coli [4] were 70%, 61% and 56%, respectively.
As for `c1ccc(-c2nc3c4c(ncn3n2)Oc2ccc3ccccc3c2C4c2ccco2)cc1` (stereo not drawn), the Ratio with Escherichia coli [1] turned out to be 1.4; with Escherichia coli [5], 1.3; with Escherichia coli [6] it was 1.3. Moreover, the Inhibition with Escherichia coli [2] is reported as 99%; in the data set with Escherichia coli [3], 99%; in the data set on Escherichia coli [4] it was 75%.
Regarding `O=C(N/N=C/c1ccc([N+](=O)[O-])o1)c1ccc(O)cc1` [NIFUROXAZIDE], in the data set with Escherichia coli [7], the Ratio was found to be 12.88.
